Molecular target: WNV NS5 WT
Assay: MTase-Glo luminescence methyltransferase assay
Type: biochemical, Orthoflavivirus nilense
Settings: poly-A RNA acceptor, 20 µM SAM, pH 9, 30 °C, 25 min; MTase activity

Compound	IC50 [µM]
Nc1ncnc2c1ncn2[C@@H]1O[C@H](CNC(=O)C(c2ccccc2)(c2ccccc2)c2ccccc2)[C@@H](O)[C@H]1O [compound 1, 5´-(2,2,2-triphenylacetamide)-5´-deoxyadenosine]	21.6 ± 11.1
Nc1ncnc2c1ncn2[C@@H]1O[C@H](C[C@@H](N)CC[C@H](N)C(=O)O)[C@@H](O)[C@H]1O [sinefungin]	3.6 ± 1.8

— paper PMC11497361 (Current Research in Microbial Sciences, 2024)
